# Legend:
# [1] = biological target: T1, interaction between HIV-1 MA and arginyl-tRNA synthetase (RRS) (Homo sapiens, UniProt P54136); assay: Co-immunoprecipitation of RRS with HIV-1 MA (control); type: binding
# T1 construct: endogenous in cells; host or cells: 293A-MA-FH cells (RRS endogenous; MA-flag stably expressed)
# T1 sequence (P54136 1-660): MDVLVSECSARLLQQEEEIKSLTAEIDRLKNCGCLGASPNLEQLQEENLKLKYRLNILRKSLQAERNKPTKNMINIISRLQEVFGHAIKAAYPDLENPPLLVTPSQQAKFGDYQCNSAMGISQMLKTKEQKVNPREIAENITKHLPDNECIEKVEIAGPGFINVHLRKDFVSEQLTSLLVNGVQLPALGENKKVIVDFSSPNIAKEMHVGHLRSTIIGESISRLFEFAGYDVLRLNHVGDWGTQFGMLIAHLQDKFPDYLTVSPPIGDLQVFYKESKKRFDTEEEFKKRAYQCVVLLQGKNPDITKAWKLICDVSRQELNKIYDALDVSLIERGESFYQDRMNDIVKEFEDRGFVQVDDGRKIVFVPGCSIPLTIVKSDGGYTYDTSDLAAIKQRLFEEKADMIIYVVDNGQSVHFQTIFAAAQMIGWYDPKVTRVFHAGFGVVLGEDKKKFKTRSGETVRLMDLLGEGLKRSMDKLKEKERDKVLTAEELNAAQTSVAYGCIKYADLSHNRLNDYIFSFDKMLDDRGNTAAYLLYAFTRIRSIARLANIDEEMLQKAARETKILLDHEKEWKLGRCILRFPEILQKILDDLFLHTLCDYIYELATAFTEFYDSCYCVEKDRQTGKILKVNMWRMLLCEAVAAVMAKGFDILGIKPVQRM
# Protocol: As a control, the interaction between MA and another MA-interacting protein, arginyl-tRNA synthetase (RRS), a subunit of the aminoacyl-tRNA synthetase complex, was also evaluated. The coimmunoprecipitation of RRS and HIV-1 MA was not affected by addition of myristic acid (FIG. 1D).
# [2] = test system: HIV-1 virion production in 293A cells; assay: Virus-like particle (VLP) detection, 293A cells transfected with pNL4.3luc, CA Western blot; conditions: 20-40 micromolar, 48 hours, FIG. 4C
# human HO-2 = biological target: T2, human HO-2 (Homo sapiens, UniProt P30519); assay: Fatty acid binding to HO-2 (crystal structure); conditions: FIG. 2E
# T2 construct: The HO-2 gene fragment encoding amino acid residues 30-242 was cloned into a pET28a vector; made in house; host or cells: Escherichia coli BL21 (DE3) Star
# T2 sequence (P30519 30-242): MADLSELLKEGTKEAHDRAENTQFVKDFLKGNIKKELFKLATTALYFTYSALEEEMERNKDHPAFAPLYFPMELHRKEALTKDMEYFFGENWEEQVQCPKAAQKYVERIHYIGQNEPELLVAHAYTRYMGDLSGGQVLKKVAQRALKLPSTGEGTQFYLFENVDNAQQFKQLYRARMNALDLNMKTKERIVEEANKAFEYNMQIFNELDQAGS
# Protocol: To make the myristate complex, sodium myristate was dissolved in water at 50° C., and mixed with 20 mg/ml protein solution and incubated at 37° C. water bath for 30 min. The complex solution was then used to set up crystallization by mixing with (0.1 M Bis-Tris, (pH 5.5), 28% (w/v) polyethylene glycol 550 monomethyl ether, and 5 mM MgCl2). Crystals were directly flash-frozen in liquid nitrogen.
# The laurate complex crystals were obtained by soaking apo crystals in well solution with 5 mM sodium laurate overnight and transferred to well solution with 35% (w/v) of precipitant before flash-frozen in liquid nitrogen. The crystals belong to space group P212121 and there are four protein molecules in the asymmetric unit.
# X-ray diffraction data sets were collected at beamline 24-ID-E of the Advanced Photon Source (APS). The data were processed with the HKL package (Otwinowski and Minor, 1997). The structures were solved by molecular replacement using entry 2Q32 from the Protein Data Bank as the model. The myristate and laurate were manually added with Coot (Emsley and Cowtan, 2004) and refined with Phenix (Adams et al., 2002).
# The crystal structure was also determined at 2.1 Å resolution of human HO-2 in complex with the C12 fatty acid laurate (FIG. 2E, Table 1B). The crystal was isomorphous to that of the myristate complex. […]
structure (smiles),measurement,setting,value
"C=CC1=C(C)C2=Cc3c(C=C)c(C)c4[n]3[Sn]([Cl])([Cl])[n]3c(c(C)c(CCC(=O)O)c3=CC3=NC(=C4)C(C)=C3CCC(=O)O)=CC1=N2 [SnPPIX, tin protoporphyrin IX dichloride]",interaction between HIV-1 MA and RRS,"[1]; increasing concentrations of SnPPIX, FIG. 4B",no effect
same,virus yield (CA levels in virions),[2],dramatic increases in virus yield
CCCCCCCCCCCCCC(=O)O [myristic acid],coimmunoprecipitation of RRS and HIV-1 MA,"[1]; myristic acid added to cell lysates, FIG. 1D",not affected
CCCCCCCCCCCC(=O)O [laurate],binding to HO-2,human HO-2,could indeed bind

# — patent US10562939B2, “Method for significantly increasing lentiviral production” (priority 2016, dated 2020)
